Measured values as given in patent US11802120B2, “Fused cyclic urea derivatives as CRHR2 antagonist” (RaQualia Pharma Inc., priority 2018, dated 2023).

The compounds below were run against T1, human CRHR2-alpha (Homo sapiens, UniProt Q13324) (assay: cAMP functional assay for human CRHR2 (LANCE Ultra cAMP, TR-FRET)). Details: CHO-K1 cells expressing human CRHR2-alpha, agonist human urocortin2 at EC80, cAMP; read-out: IC50 against CRHR2.
T1 sequence (Q13324 1-411): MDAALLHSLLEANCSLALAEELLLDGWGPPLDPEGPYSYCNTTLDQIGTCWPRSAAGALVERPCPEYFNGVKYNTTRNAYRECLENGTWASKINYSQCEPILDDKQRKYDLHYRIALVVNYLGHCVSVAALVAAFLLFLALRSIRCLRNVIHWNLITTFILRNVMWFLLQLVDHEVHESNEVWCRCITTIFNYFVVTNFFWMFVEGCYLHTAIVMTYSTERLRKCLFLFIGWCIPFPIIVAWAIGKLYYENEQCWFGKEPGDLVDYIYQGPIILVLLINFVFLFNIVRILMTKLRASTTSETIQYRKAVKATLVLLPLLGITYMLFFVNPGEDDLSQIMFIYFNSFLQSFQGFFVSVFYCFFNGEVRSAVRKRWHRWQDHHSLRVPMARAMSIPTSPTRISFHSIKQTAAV
Format: cell-based
Outline: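 Antagonism measured in CHO-K1 cells stably expressing the receptor, serum-starved 7 h then cryopreserved. Thawed cells in HBSS buffer with 0.1% BSA, 0.5 mM IBMX, 5 mM Hepes pH 7.4 were preincubated with compound 30 min at 25° C, then stimulated 30 min with EC80 agonist: urocortin2 for CRHR2, CRF for CRHR1.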

IC50, < 300 nM:
CNc1ccc(-n2c(=O)n(C[C@H]3CC[C@H](NC(=O)c4cc(Cl)cnc4C(F)(F)F)CC3)c3ccccc32)cn1 [Example 332, 5-chloro-N-((1r,4r)-4-((3-(6-(methylamino)pyridin-3-yl)-2-oxo-2,3-dihydro-1H-benzo[d]imidazol-1-yl)methyl)cyclohexyl)-2-(trifluoromethyl) nicotinamide]
Cc1ncc(Cl)cc1C(=O)N[C@H]1CC[C@H](Cn2c(=O)n(-c3cccc4nccn34)c3ccccc32)CC1 [Example 350, 5-chloro-N-((1r,4r)-4-((3-(imidazo[1,2-a]pyridin-5-yl)-2-oxo-2,3-dihydro-1H-benzo [d]imidazol-1-yl)methyl)cyclohexyl)-2-methylnico-tinamide]
CNc1ccc(-n2c(=O)n(C[C@H]3CC[C@H](NC(=O)c4cc(Cl)cnc4C)CC3)c3c(F)cccc32)cn1 [Example 668, 5-chloro-N-((1r,4r)-4-((7-fluoro-3-(6-(methylamino)pyridin-3-yl)-2-oxo-2,3-dihydro-1H-benzo[d]imidazol-1-yl)methyl)cyclo-hexyl)-2-methylnicotinamide]
COC1CCN(c2ccc(-n3c(=O)n(C[C@H]4CC[C@H](NC(=O)c5cc(Cl)cnc5C)CC4)c4ccccc43)cn2)CC1 [Example 126, 5-chloro-N-((1r,4r)-4-((3-(6-(4-methoxypiperidin-1-yl)pyridin-3-yl)-2-oxo-2,3-di-hydro-1H-benzo[d]imidazol-1-yl)methyl)cyclohexyl)-2-methylnicotinamide]
Cc1ncc(Cl)cc1C(=O)N[C@H]1CC[C@H](Cn2c(=O)n(-c3cncc(N(C)C)c3)c3ccccc32)CC1 [Example 483, 5-chloro-N-((1r,4r)-4-((3-(5-(dimethylamino)pyridin-3-yl)-2-oxo-2,3-dihydro-1H-benzo [d]imidazol-1-yl)methyl)cyclo-hexyl)-2-methylnicotinamide]
Cc1ncc(Cl)cc1C(=O)N[C@H]1CC[C@H](Cn2c(=O)n(-c3ccc(-n4ccnc4)cc3)c3ccccc32)CC1 [Example 468, N-((1r,4r)-4-((3-(4-(1H-imidazol-1-yl)phenyl)-2-oxo-2,3-dihydro-1H-benzo[d]imidazol-1-yl)methyl)cyclo-hexyl)-5-chloro-2-methyl-nicotinamide]
Cc1ncc(Cl)cc1C(=O)N[C@H]1CC[C@H](Cn2c(=O)n(-c3cnc(N(C)C)cn3)c3ccccc32)CC1 [Example 116, 5-chloro-N-((1r,4r)-4-((3-(5-(dimethylamino)pyrazin-2-yl)-2-oxo-2,3-dihydro-1H-benzo[d]imidazol-1-yl)methyl)cyclo-hexyl)-2-methylnicotinamide]
O=C(N[C@H]1CC[C@H](Cn2c(=O)n(-c3ccc4ncccc4c3)c3cccnc32)CC1)c1cc(Cl)cnc1C(F)(F)F [Example 360, 5-chloro-N-((1r,4r)-4-((2-oxo-1-(quinolin-6-yl)-1H-imidazo [4,5-b]pyridin-3(2H)-yl)methyl)cyclohexyl)-2-(trifluoromethyl) nicotinamide]
Cc1ccc(-n2c(=O)n(C[C@H]3CC[C@H](NC(=O)c4cc(Cl)cnc4C(F)F)CC3)c3ccccc32)c(C)n1 [Example 376, 5-chloro-2-(difluoromethyl)-N-((1r,4r)-4-((3-(2,6-dimethyl-pyridin-3-yl)-2-oxo-2,3-dihydro-1H-benzo[d]imidazol-1-yl)methyl)cyclohexyl) nicotinamide]
Cc1ncc(Cl)cc1C(=O)N[C@H]1CC[C@H](Cn2c(=O)n(-c3cnc4cc[nH]c4c3)c3ccccc32)CC1 [Example 158, 5-chloro-2-methyl-N-((1r,4r)-4-((2-oxo-3-(1H-pyrrolo[3,2-b]pyridin-6-yl)-2,3-dihydro-1H-benzo[d]imidazol-1-yl)methyl)cyclohexyl)nicotinamide]
COCCNc1cc(C#N)c(-n2c(=O)n(C[C@H]3CC[C@H](NC(=O)c4cc(Cl)cnc4C)CC3)c3ccccc32)cn1 [Example 310, 5-chloro-N-((1r,4r)-4-((3-(4-cyano-6-((2-methoxyethyl)amino)pyridin-3-yl)-2-oxo-2,3-dihydro-1H-benzo[d]imidazol-1-yl)methyl)cyclohexyl)-2-methylnicotinamide]
O=C(N[C@H]1CC[C@H](Cn2c(=O)n(-c3ccc4nccnc4c3)c3ccccc32)CC1)c1cc(Cl)cnc1C(F)F [Example 495, 5-chloro-2-(difluoromethyl)-N-((1r,4r)-4-((2-oxo-3-(quinoxalin-6-yl)-2,3-dihydro-1H-benzo[d]imidazol-1-yl)methyl)cyclo-hexyl)nicotinamide]
O=C(N[C@H]1CC[C@H](Cn2c(=O)n(Cc3cccnc3)c3ccccc32)CC1)c1cc(Cl)cnc1C(F)(F)F [Example 284, 5-chloro-N-((1r,4r)-4-((2-oxo-3-(pyridin-3-ylmethyl)-2,3-dihydro-1H-benzo[d]imidazol-1-yl)methyl)cyclohexyl)-2-(trifluoromethyl)nicotinamide]
Cc1ncc(Cl)cc1C(=O)N[C@H]1CC[C@H](Cn2c(=O)n(-c3ccc4c(N)n[nH]c4c3)c3ccccc32)CC1 [Example 197, N-((1r,4r)-4-((3-(3-amino-1H-indazol-6-yl)-2-oxo-2,3-dihydro-1H-benzo[d]imidazol-1-yl)methyl)cyclohexyl)-5-chloro-2-methylnicotinamide]
Cc1ncc(Cl)cc1C(=O)N[C@H]1CC[C@H](Cn2c(=O)n(-c3ccc(-c4cn[nH]c4)cc3)c3ccccc32)CC1 [Example 581, N-((1r,4r)-4-((3-(4-(1H-pyrazol-4-yl)phenyl)-2-oxo-2,3-dihydro-1H-benzo[d]imidazol-1-yl)methyl)cyclohexyl)-5-chloro-2-methylnicotinamide]
Cc1ncc(Cl)cc1C(=O)N[C@H]1CC[C@H](Cn2c(=O)n(-c3cnc4c(c3)CCN4C)c3ccccc32)CC1 [Example 154, 5-chloro-2-methyl-N-((1r,4r)-4-((3-(1-methyl-2,3-dihydro-1H-pyrrolo[2,3-b]pyridin-5-yl)-2-oxo-2,3-dihydro-1H-benzo[d]imidazol-1-yl)methyl)cyclohexyl)nicotinamide]
Cc1ncc(Cl)cc1C(=O)N[C@H]1CC[C@H](Cn2c(=O)n(-c3ccc(-c4ccc(N)nc4)nc3)c3ccccc32)CC1 [Example 216]
CNC(=O)c1ccc(-n2c(=O)n(C[C@H]3CC[C@H](NC(=O)c4c5ccccc5nn4CC(F)(F)F)CC3)c3ccccc32)cn1 [Example 557, N-((1r,4r)-4-((3-(6-(methylcarbamoyl)pyridin-3-yl)-2-oxo-2,3-dihydro-1H-benzo[d]imidazol-1-yl)methyl)cyclohexyl)-2-(2,2,2-trifluoroethyl)-2H-indazole-3-carboxamide]
Cc1nc2ncc(-n3c(=O)n(C[C@H]4CC[C@H](NC(=O)c5cc(Cl)cnc5C)CC4)c4ccccc43)cc2o1 [Example 356, 5-chloro-2-methyl-N-((1r,4r)-4-((3-(2-methyloxazolo[4,5-b]pyridin-6-yl)-2-oxo-2,3-dihydro-1H-benzo[d]imidazol-1-yl)methyl)cyclohexyl)nicotinamide]
CN(C)c1ccc(-n2c(=O)n(C[C@H]3CC[C@H](NC(=O)c4cc(Cl)cnc4C(F)F)CC3)c3ccccc32)cn1 [Example 381, 5-chloro-2-(difluoromethyl)-N-((1r,4r)-4-((3-(6-(dimethyl-amino)pyridin-3-yl)-2-oxo-2,3-dihydro-1H-benzo[d]imidazol-1-yl)methyl)cyclo-hexyl)nicotinamide]
CNc1cc(C)c(-n2c(=O)n(C[C@H]3CC[C@H](NC(=O)c4cc(Cl)cnc4C(F)F)CC3)c3ccccc32)cn1 [Example 465, 5-chloro-2-(difluoromethyl)-N-((1r,4r)-4-((3-(4-methyl-6-(methylamino)pyridin-3-yl)-2-oxo-2,3-dihydro-1H-benzo[d]imidazol-1-yl)methyl)cyclohexyl)nicotinamide]
COc1ccc(C#N)c(-n2c(=O)n(C[C@H]3CC[C@H](NC(=O)c4cc(Cl)cnc4C)CC3)c3ccccc32)c1 [Example 259, 5-chloro-N-((1r,4r)-4-((3-(2-cyano-5-methoxyphenyl)-2-oxo-2,3-dihydro-1H-benzo [d]imidazol-1-yl)methyl)cyclo-hexyl)-2-methylnicotinamide]
O=C(N[C@H]1CC[C@H](Cn2c(=O)n(-c3ccn4cncc4c3)c3ccccc32)CC1)c1cc(Cl)cnc1C(F)F [Example 415, 5-chloro-2-(difluoromethyl)-N-((1r,4r)-4-((3-(imidazo[1,5-a]pyridin-7-yl)-2-oxo-2,3-dihydro-1H-benzo[d]imidazol-1-yl)methyl)cyclohexyl)nicotinamide]
Cc1ncc(Cl)cc1C(=O)N[C@H]1CC[C@H](Cn2c(=O)n(-c3ccc(NCC4CC4)nc3)c3ccccc32)CC1 [Example 105, 5-chloro-N-((1r,4r)-4-((3-(6-((cyclopropylmethyl)amino)pyridin-3-yl)-2-oxo-2,3-dihydro-1H-benzo[d]imidazol-1-yl)methyl)cyclohexyl)-2-methylnicotinamide]
